From patent US6737383B1, “Herbicidal oxadiazolidines” (priority 1999, dated 2004)

Legend:
bedstraw = test: Test B pre/postemergence bedstraw; assay type: in vivo, Galium aparine
Summary of the method: (§1)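 Response is a visual 0-to-10 score relative to untreated plants, where 0 means no effect and 10 means complete control, taken twelve to sixteen days after application. Treatments went onto soil at planting and onto foliage of 1- to 4-leaf plants, using a surfactant-containing non-phytotoxic solvent.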

blackgrass = test: Test B pre/postemergence blackgrass; assay type: in vivo, Alopecurus myosuroides
Summary of the method: as §1

surinam grass = test: Test B pre/postemergence surinam grass; assay type: in vivo, Brachiaria decumbens
Summary of the method: as §1

cocklebur = test: Test B pre/postemergence cocklebur; assay type: in vivo, Xanthium strumarium
Summary of the method: as §1

corn = test: Test B pre/postemergence corn; assay type: in vivo, Zea mays
Summary of the method: as §1

crabgrass = test: Test B pre/postemergence crabgrass; assay type: in vivo, Digitaria sanguinalis
Summary of the method: as §1

giant foxtail = test: Test B pre/postemergence giant foxtail; assay type: in vivo, Setaria faberii
Summary of the method: as §1

morningglory = test: Test B pre/postemergence morningglory; assay type: in vivo, Ipomoea hederacea
Summary of the method: as §1

pigweed = test: Test B pre/postemergence pigweed; assay type: in vivo, Amaranthus retroflexus
Summary of the method: as §1

rape = test: Test B pre/postemergence rape; assay type: in vivo, Brassica napus
Summary of the method: as §1

soybean = test: Test B pre/postemergence soybean; assay type: in vivo, Glycine max
Summary of the method: as §1

sugar beet = test: Test B pre/postemergence sugar beet; assay type: in vivo, Beta vulgaris
Summary of the method: as §1

velvetleaf = test: Test B pre/postemergence velvetleaf; assay type: in vivo, Abutilon theophrasti
Summary of the method: as §1

wheat = test: Test B pre/postemergence wheat; assay type: in vivo, Triticum aestivum
Summary of the method: as §1

wild oat = test: Test B pre/postemergence wild oat; assay type: in vivo, Avena fatua
Summary of the method: as §1

purple nutsedge = test: Test B pre/postemergence purple nutsedge; assay type: in vivo, Cyperus rotundus; settings: Postemergence; for Nutsedge plant response rating: 10 is complete control; for Plant response rating, Nutsedge: scale of 0 to 10 where 0 is no effect and 10 is complete control
Summary of the method: as §1

[1] = Postemergence, Rate 125 g/ha, scale 0 to 10, 0 is no effect, 10 is complete control
[2] = Postemergence, Rate 500 g/ha, scale of 0 to 10 where 0 is no effect and 10 is complete control
[3] = Preemergence, Rate 62 g/ha, scale 0 to 10 (0 no effect, 10 complete control)
[4] = Preemergence, Rate 125 g/ha, scale 0 to 10, 0 is no effect, 10 is complete control
[5] = Preemergence, Rate 500 g/ha, scale of 0 to 10 where 0 is no effect and 10 is complete control
[6] = Rate 250 g/ha, Postemergence, scale of 0 to 10 where 0 is no effect and 10 is complete control
[7] = Postemergence, Rate 62 g/ha, scale of 0 to 10, 0 is no effect, 10 is complete control

SMILES: CC(C)N(C(=O)n1oc(=O)n(CCCF)c1=O)c1ccccc1 [Compound 559]
- Bedstraw plant response rating (bedstraw; [1]): 0
- Plant response rating, Bedstraw (bedstraw; [2]): 4
- Bedstraw plant response rating (bedstraw; [3]): 0
- Bedstraw plant response rating (bedstraw; [4]): 0
- Bedstraw plant response rating (0 to 10 scale) (bedstraw; Preemergence, Rate 250 g/ha): 0
- Bedstraw plant response rating (bedstraw; [5]): 0
- Plant response rating, Bedstraw (bedstraw; [6]): 0
- Blackgrass plant response rating (blackgrass; [7]): 7
- Blackgrass plant response rating (blackgrass; [1]): 7
- Plant response rating, Blackgrass (blackgrass; [2]): 7
- Blackgrass plant response rating (blackgrass; [3]): 9
- Blackgrass plant response rating (blackgrass; [4]): 10
- Blackgrass plant response rating (0 to 10 scale) (blackgrass; Preemergence, Rate 250 g/ha): 10
- Blackgrass plant response rating (blackgrass; [5]): 10
- Plant response rating, Blackgrass (blackgrass; [6]): 7
- B. signalgrass plant response rating (surinam grass; [7]): 4
- B. signalgrass plant response rating (surinam grass; [1]): 9
- Plant response rating, B. signalgrass (surinam grass; [2]): 9
- B. signalgrass plant response rating (surinam grass; [3]): 8
- B. signalgrass plant response rating (surinam grass; [4]): 10
- B. signalgrass plant response rating (0 to 10 scale, 0 is no effect, 10 is complete control) (surinam grass; Preemergence, Rate 250 g/ha): 9
- B. signalgrass plant response rating (surinam grass; [5]): 9
- Plant response rating, B. signalgrass (surinam grass; [6]): 9
- Cocklebur plant response rating (cocklebur; [7]): 0
- Cocklebur plant response rating (cocklebur; [1]): 0
- Plant response rating, Cocklebur (cocklebur; [2]): 2
- Cocklebur plant response rating (cocklebur; [3]): 0
- Cocklebur plant response rating (cocklebur; [4]): 0
- Cocklebur plant response rating (0 to 10 scale) (cocklebur; Preemergence, Rate 250 g/ha): 0
- Cocklebur plant response rating (cocklebur; [5]): 2
- Plant response rating, Cocklebur (cocklebur; [6]): 0
- Corn plant response rating (corn; [7]): 0
- Corn plant response rating (corn; [1]): 0
- Plant response rating, Corn (corn; [2]): 7
- Corn plant response rating (corn; [3]): 2
- Corn plant response rating (corn; [4]): 3
- Corn plant response rating (0 to 10 scale) (corn; Preemergence, Rate 250 g/ha): 6
- Corn plant response rating (corn; [5]): 6
- Plant response rating, Corn (corn; [6]): 6
- Crabgrass plant response rating (crabgrass; [7]): 5
- Crabgrass plant response rating (crabgrass; [1]): 4
- Plant response rating, Crabgrass (crabgrass; [2]): 9
- Crabgrass plant response rating (crabgrass; [3]): 9
- Crabgrass plant response rating (crabgrass; [4]): 10
- Crabgrass plant response rating (0 to 10 scale) (crabgrass; Preemergence, Rate 250 g/ha): 10
- Crabgrass plant response rating (crabgrass; [5]): 10
- Plant response rating, Crabgrass (crabgrass; [6]): 9
- Giant foxtail plant response rating (giant foxtail; [7]): 9
- Giant foxtail plant response rating (giant foxtail; [1]): 9
- Plant response rating, Giant foxtail (giant foxtail; [2]): 9
- Giant foxtail plant response rating (giant foxtail; [3]): 10
- Giant foxtail plant response rating (giant foxtail; [4]): 10
- Giant foxtail plant response rating (0 to 10 scale) (giant foxtail; Preemergence, Rate 250 g/ha): 10
- Giant foxtail plant response rating (giant foxtail; [5]): 10
- Plant response rating, Giant foxtail (giant foxtail; [6]): 9
- Morningglory plant response rating (morningglory; [7]): 9
- Morningglory plant response rating (morningglory; [1]): 10
- Plant response rating, Morningglory (morningglory; [2]): 10
- Morningglory plant response rating (morningglory; [3]): 0
- Morningglory plant response rating (morningglory; [4]): 2
- Morningglory plant response rating (0 to 10 scale) (morningglory; Preemergence, Rate 250 g/ha): 4
- Morningglory plant response rating (morningglory; [5]): 8
- Plant response rating, Morningglory (morningglory; [6]): 9
- Redroot pigweed plant response rating (pigweed; [7]): 0
- Plant response rating, Redroot pigweed (pigweed; [2]): 8
- Redroot pigweed plant response rating (pigweed; [3]): 7
- Redroot pigweed plant response rating (pigweed; [4]): 10
- Redroot pigweed plant response rating (0 to 10 scale) (pigweed; Preemergence, Rate 250 g/ha): 10
- Redroot pigweed plant response rating (pigweed; [5]): 10
- Plant response rating, Redroot pigweed (pigweed; [6]): 3
- Rape plant response rating (rape; [7]): 0
- Rape plant response rating (rape; [1]): 0
- Plant response rating, Rape (rape; [2]): 2
- Rape plant response rating (rape; [3]): 7
- Rape plant response rating (rape; [4]): 9
- Rape plant response rating (0 to 10 scale) (rape; Preemergence, Rate 250 g/ha): 10
- Rape plant response rating (rape; [5]): 10
- Plant response rating, Rape (rape; [6]): 2
- Soybean plant response rating (soybean; [7]): 4
- Plant response rating, Soybean (soybean; [2]): 6
- Soybean plant response rating (soybean; [3]): 0
- Soybean plant response rating (soybean; [4]): 2
- Soybean plant response rating (0 to 10 scale) (soybean; Preemergence, Rate 250 g/ha): 3
- Soybean plant response rating (soybean; [5]): 3
- Plant response rating, Soybean (soybean; [6]): 5
- Sugarbeets plant response rating (sugar beet; [7]): 0
- Plant response rating, Sugarbeets (sugar beet; [2]): 8
- Sugarbeets plant response rating (sugar beet; [3]): 3
- Sugarbeets plant response rating (sugar beet; [4]): 6
- Sugarbeets plant response rating (0 to 10 scale) (sugar beet; Preemergence, Rate 250 g/ha): 9
- Sugarbeets plant response rating (sugar beet; [5]): 9
- Plant response rating, Sugarbeets (sugar beet; [6]): 2
- Velvetleaf plant response rating (velvetleaf; [7]): 0
- Plant response rating, Velvetleaf (velvetleaf; [2]): 3
- Velvetleaf plant response rating (velvetleaf; [3]): 3
- Velvetleaf plant response rating (velvetleaf; [4]): 4
- Velvetleaf plant response rating (0 to 10 scale) (velvetleaf; Preemergence, Rate 250 g/ha): 6
- Velvetleaf plant response rating (velvetleaf; [5]): 9
- Plant response rating, Velvetleaf (velvetleaf; [6]): 2
- Wheat plant response rating (wheat; [7]): 2
- Plant response rating, Wheat (wheat; [2]): 3
- Wheat plant response rating (wheat; [3]): 3
- Wheat plant response rating (wheat; [4]): 8
- Wheat plant response rating (0 to 10 scale) (wheat; Preemergence, Rate 250 g/ha): 9
- Wheat plant response rating (wheat; [5]): 9
- Plant response rating, Wheat (wheat; [6]): 2
- Wild oats plant response rating (wild oat; [7]): 2
- Plant response rating, Wild oats (wild oat; [2]): 5
- Wild oats plant response rating (wild oat; [4]): 9
- Wild oats plant response rating (0 to 10 scale) (wild oat; Preemergence, Rate 250 g/ha): 9
- Wild oats plant response rating (wild oat; [5]): 9
- Plant response rating, Wild oats (wild oat; [6]): 4
- Nutsedge plant response rating (purple nutsedge; Rate 62 g/ha, scale of 0 to 10, 0 is no effect): 0
- Nutsedge plant response rating (purple nutsedge; Rate 125 g/ha, scale 0 to 10, 0 is no effect): 0
- Plant response rating, Nutsedge (purple nutsedge; Rate 500 g/ha): 2
- Plant response rating, Nutsedge (purple nutsedge; Rate 250 g/ha): 2
